Assay results: patent publication US9309224B2 (Deciphera Pharmaceuticals, LLC, priority 2013, dated 2016)

What was measured:
c-FMS = experiment: cFOS mRNA production in a c-FMS mouse spleen pharmacodynamic model; type: in vivo; settings: out to 8 h post 30 mg/kg single oral dose, read-out: inhibition of cFOS mRNA levels
Protocol: Analysis of cFOS mRNA Production in a c-FMS Mouse Spleen Pharmacodynamic Model To examine the in vivo modulation of FMS activity by compounds of formula I, spleen samples from female DBA/1 mice were collected and analyzed for M-CSF stimulated production of cFOS mRNA. Briefly, six to seven week old female Taconic DBA/1BO J Bom Tac mice were treated with a single oral dose (by gavage) of either vehicle or compound. Plasma and spleen samples are collected from four mice at each timepoint 2, 4, 6, 8, 12, 18, and 24 hours after dosing. Fifteen minutes prior to euthanasia, all mice were injected IV with 1 μg (100 μL fixed volume) of M-CSF. M-CSF, Recombinant Mouse Macrophage Colony Stimulating Factor (36.4 kDa homodimer, ≧98% purity) was obtained from Gibco. All procedures carried out in this experiment were conducted in compliance with all the laws, regulations and guidelines of the National Institutes of Health (NIH). cFOS mRNA levels in spleen extracts were determined using a quantitative reverse transcriptase PCR kit from Life Technologies. Plasma levels of FMS inhibitors were determined by mass spectrometer analysis. The degree of FMS inhibition was correlative to the amount of decrease observed in cFOS mRNA levels in the spleen samples of treated animals compared to vehicle.

M-NFS-60 cells = experiment: M-NFS-60 cell proliferation assay; type: cell-based; settings: 67 h incubation, resazurin
Protocol: M-NFS-60 Cell Proliferation Assay A serial dilution of test compound was dispensed into a 384-well black clear bottom plate (Corning, Corning, N.Y.). Two thousand five hundred cells were added per well in 50 μL complete growth medium. […] IC50 values were calculated from a series of percent inhibition values determined at a range of inhibitor concentrations using software routines as implemented in the GraphPad Prism software package.

[1] = molecular target: T1, unphosphorylated PDGFRβ kinase (uPDGFRβ, Seq. ID No. 3) (Homo sapiens, UniProt P09619); experiment: Unphosphorylated PDGFRβ kinase assay (pyruvate kinase/lactate dehydrogenase coupled); type: biochemical; settings: ATP 500 μM
T1 construct: purchased DeCode
T1 sequence (P09619 557-1105): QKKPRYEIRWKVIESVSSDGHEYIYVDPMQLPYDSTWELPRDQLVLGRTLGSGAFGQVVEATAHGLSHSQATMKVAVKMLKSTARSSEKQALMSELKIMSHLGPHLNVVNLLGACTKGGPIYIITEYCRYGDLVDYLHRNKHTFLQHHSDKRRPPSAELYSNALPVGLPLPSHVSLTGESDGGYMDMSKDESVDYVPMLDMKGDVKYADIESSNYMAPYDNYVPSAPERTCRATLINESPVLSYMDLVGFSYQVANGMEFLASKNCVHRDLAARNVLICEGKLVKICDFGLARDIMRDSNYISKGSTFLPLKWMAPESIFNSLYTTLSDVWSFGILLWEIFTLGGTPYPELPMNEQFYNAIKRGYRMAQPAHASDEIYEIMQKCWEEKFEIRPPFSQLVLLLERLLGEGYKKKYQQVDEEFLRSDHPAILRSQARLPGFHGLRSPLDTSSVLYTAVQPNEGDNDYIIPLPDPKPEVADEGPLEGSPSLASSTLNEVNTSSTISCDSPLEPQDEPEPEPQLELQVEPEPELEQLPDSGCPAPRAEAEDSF
From the text: Unphosyhorylated PDGFRβ (uPDGFRβkinase (Seq. ID No. 3) assay

[2] = molecular target: T2, phospho-FMS in THP-1 cells (Homo sapiens, UniProt P07333); experiment: Phospho-FMS ELISA assay in THP-1 cells; type: cell-based; settings: 4 hours compound, M-CSF stimulated; read-out: pFMS inhibition in THP-1 cells
T2 construct: endogenous in cells; host or cells: THP-1 (ATCC TIB-202)
T2 sequence (P07333 20-972): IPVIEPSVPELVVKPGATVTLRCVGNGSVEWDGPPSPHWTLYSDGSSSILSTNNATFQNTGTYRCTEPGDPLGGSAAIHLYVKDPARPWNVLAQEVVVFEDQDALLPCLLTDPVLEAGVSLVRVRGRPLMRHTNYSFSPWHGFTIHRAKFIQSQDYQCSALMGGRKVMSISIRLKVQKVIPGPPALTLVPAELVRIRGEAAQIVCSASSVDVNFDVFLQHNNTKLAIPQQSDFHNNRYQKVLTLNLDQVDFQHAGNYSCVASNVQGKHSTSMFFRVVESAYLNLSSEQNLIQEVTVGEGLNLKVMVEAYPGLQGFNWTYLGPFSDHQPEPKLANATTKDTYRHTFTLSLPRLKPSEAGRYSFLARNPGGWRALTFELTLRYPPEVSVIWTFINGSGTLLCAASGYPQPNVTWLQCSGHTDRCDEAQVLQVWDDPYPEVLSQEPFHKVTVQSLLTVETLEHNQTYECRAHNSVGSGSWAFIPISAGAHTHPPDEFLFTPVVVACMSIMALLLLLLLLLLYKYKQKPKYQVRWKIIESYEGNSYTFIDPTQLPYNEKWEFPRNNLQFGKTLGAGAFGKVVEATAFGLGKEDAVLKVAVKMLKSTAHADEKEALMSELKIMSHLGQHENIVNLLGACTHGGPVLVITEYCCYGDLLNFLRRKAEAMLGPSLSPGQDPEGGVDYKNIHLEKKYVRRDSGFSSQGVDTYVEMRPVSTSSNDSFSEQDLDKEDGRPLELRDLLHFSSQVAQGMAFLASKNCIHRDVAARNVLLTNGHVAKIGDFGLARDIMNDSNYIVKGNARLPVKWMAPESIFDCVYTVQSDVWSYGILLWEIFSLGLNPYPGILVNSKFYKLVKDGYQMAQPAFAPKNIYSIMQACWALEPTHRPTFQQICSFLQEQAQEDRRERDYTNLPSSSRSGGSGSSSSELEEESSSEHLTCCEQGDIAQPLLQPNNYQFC

IC50 [1]: 100 to 1000 nM
IC50 [2]: < 10 nM
SMILES: CN1CCN(C(=O)Nc2cc(Oc3ccc(NC(=O)NC(=O)C(C)(C)C)nc3)ccn2)CC1 [Example 45, 4-methyl-N-(4-((6-(3-pivaloylureido)pyridin-3-yl)oxy)pyridin-2-yl)piperazine-1-carboxamide]
inhibition in vivo at 30 mg/kg (c-FMS): ≥ 50%
IC50 (M-NFS-60 cells): < 10 nM
